US11679097B2, “Combination product containing limonoid compound and biguanide compound” (ZHEJIANG YANGSHENGTANG INSTITUTE OF NATURAL MEDICATION CO., …, priority 2017, dated 2023)

How the values were obtained:
Type in all cases: in vivo
STZ mice [1] = experiment: Blood glucose in mouse pancreatic islet β-cell injury model (Example 3); conditions: STZ ICR mice; single administration 0.1 g/kg per day by gavage, two weeks; 1 h after last administration
Text: Effects of a Limonoid Compound, Metformin or a Combination Thereof on Blood Glucose in a Mouse Pancreatic Islet β-Cell Injury Model In this example, a mouse pancreatic islet β-cell injury model was established by modeling ICR mice with streptozotocin (STZ) (referred to the prior art literature: Li Nan et al., Protective effect of pine pollen on kidney damage in diabetic nephropathy mice, Science and Technology Review, 2014, 32 (4/5): 95-99), and used to complete the evaluation of hypoglycemic effect in animals (this model could simulate pancreatic islet β-cell damage state of type I and type II diabetics). […] Conditions of experimental feeding: ICR mice (20±2 g), aged 6 weeks, purchased from Zhejiang Academy of Medical Sciences, and subjected to experimental feeding after 7 days of preliminary feeding. […] The experimental feed was mouse growth-stable feed (GB […]), and the daily feeding and management of the animals were under the responsibility of the animal security department, which provided the animals with sufficient padding and fresh drinking water daily. Experimental grouping: 15 male mice were randomly selected as the normal control group. […] Gavage doses: the gavage dose was 0.1 g/kg per day for the […] group, the gavage dose was 0.1 g/kg per day for the […] group, the gavage dose was 0.1 g/kg per day for the […]-glucopyranoside group, the gavage dose of metformin was 0.1 g/kg per day for the metformin group, […] dose of 0.05 g/kg and metformin at a dose of 0.05 g/kg were simultaneously gavaged per day for the […]/metformin combination group, […] dose of 0.05 g/kg and metformin at a dose of 0.05 g/kg were simultaneously gavaged per day for the […]/metformin combination group, […]-glucopyranoside at a dose of 0.05 g/kg and metformin at a dose of 0.05 g/kg were simultaneously gavaged per day for the […]-glucopyranoside/metformin combination group, the gavage volume was 10 mL/kg, and the normal group and the model group were administrated with 10 mL/kg of distilled water. […] SPSS 16.0 software was used for statistical analysis. The data were expressed as mean and standard deviation. The data before and after were analyzed by t-test, and P<0.05 was considered statistically significant.

db/db mice = experiment: Blood glucose and insulin in mouse model of type II diabetes (Example 4); conditions: single administration 0.2 g/kg per day by gavage, two weeks
Text: Effects of a Limonoid Compound, Metformin or a Combination Thereof on Blood Glucose and Insulin in a Mouse Model of Type II Diabetes
In the present embodiment, the limonoid compound selected nomilin, deacetylnomilin, nomilin acid, deactylnomilin 17-β-D-glucopyranoside, and a nomilin single administration group, deacetylnomilin single administration group, nomilin acid single administered group, deactylnomilin 17-β-D-glucopyranoside single administration group, and combination thereof with metformin administration groups were set, respectively.
(§1) Conditions for experimental feeding: as type II diabetes model mice, 6-week-old SPF-grade db/db mice were purchased from the Nanjing Model Biology Institute, and subjected to experimental feeding after 7 days of preliminary feeding. It should be noted that the conditions for raising the mice were as follows: the temperature was 23±1° C., the humidity was 55±10%, the lights were turned on between 7 am and 7 pm (the lights were turned off at other time), and the mice were allowed to access to water and feed freely. The experimental feed was mouse growth-stable feed (GB M2118), and the daily feeding and management of the animals were under the responsibility of the animal security department, which provided the animals with sufficient padding and fresh drinking water daily.
Experimental grouping: male db/db mice (20±2 g) were selected, 18 male mice in each group were tested, and drinking bottles were sterilized weekly. The experimental groups included the normal control group (db/m, n=18), the model group (db/db, n=18), the nomilin group (db/db, n=18), the deacetylnomilin group (db/db, n=18), the nomilin acid group (db/db, n=18), the deactylnomilin 17-β-D-glucopyranoside group (db/db, n=18), the metformin group (db/db, n=18), the nomilin/metformin combination group (db/db, n=18), the deacetylnomilin/metformin combination group (db/db, n=18), the nomilin acid/metformin combination group (db/db, n=18), the deactylnomilin 17-β-D-glucopyranoside/combination group (db/db, n=18).
Gavage doses: nomilin at a dose of 0.2 g/kg was gavaged per day for the nomilin group, deacetylnomilin at a dose of 0.2 g/kg was gavaged per day for the deacetylnomilin group, nomilin acid at a dose of 0.2 g/kg was gavaged per day for the nomilin acid group, deacetylnomilin […] at a dose of 0.2 g/kg was gavaged per day for the deactylnomilin glucopyranoside group, metformin at a dose of 0.2 g/kg was gavaged per day for the metformin group, nomilin at a dose of 0.1 g/kg and metformin at a dose of 0.1 g/kg were simultaneously gavaged per day for the nomilin/metformin combination group, nomilin acid at a dose of 0.1 g/kg and metformin at a dose of 0.1 g/kg were simultaneously gavaged per day for the nomilin acid/metformin combination group, deacetylnomilin at a dose of 0.1 g/kg and metformin at a dose of 0.1 g/kg were simultaneously gavaged per day for the deacetylnomilin/metformin combination group, deactylnomilin 17-β-D-glucopyranoside at a dose of 0.1 g/kg and metformin at a dose of 0.1 g/kg were simultaneously gavaged per day for the deactylnomilin 17-β-D-glucopyranoside/metformin combination group, the gavage volume was 10 mL/kg, and the normal group and the model group were administrated with 10 mL/kg of distilled water. Two weeks later, the blood glucose values were measured by tail trimming method (Johnson's blood glucose meter) 1 h after the last administration, and serum insulin levels were measured with blood collected from orbital cavity by enzyme-linked immunosorbent assay (Elisa), and the average of each group was obtained. SPSS 16.0 software was used for statistical analysis. The data were expressed as mean and standard deviation. The data before and after were analyzed by t-test, and P<0.05 was considered statistically significant.

STZ mice [2] = experiment: Blood glucose in mouse model of type II diabetes with pancreatic islet damage and obesity (Example 5); conditions: high-fat diet + STZ ICR mice; single administration 0.5 g/kg per day by gavage, three weeks
Procedure: as §1, with “It” for “Conditions for experimental feeding: as type II diabetes model mice, 6-week-old SPF-grade db/db mice were purchased from the Nanjing Model Biology Institute, and subjected to experimental feeding after 7 days of preliminary feeding. It”
SPSS 16.0 software was used for statistical analysis.

SMILES: CN(C)C(=N)NC(=N)N [Metformin, N,N-dimethylimidodicarbonimidic diamide, reference compound]
- Blood glucose value (STZ mice [1]): 17.2 ± 3.9 mmol/L
- Insulin (db/db mice; serum, Elisa): 8.19 ± 2.10 pg/mL
- Blood glucose value (db/db mice; 1 h after last administration): 12.2 ± 3.6 mmol/L
- Blood glucose value (STZ mice [2]): 17.9 ± 3.6 mmol/L
